Measurements: US4282111A (Betz Laboratories, Inc., priority 1980, dated 1981)

Columns and labels:
[1] = background, cited from earlier work
[2] = oxygen scavenging in stainless steel hot water flow system at elevated temperature and pressure (Example 1); details: for % O2 Removed: 78±3°C, 4±1 psig, 4±0.2 min contact, feedwater: hydrazine 96 ppm pH 10.3 O2 1.8 ppm (average of 9 runs), hydroquinone 100 ppm pH 8.9 O2 2.3 ppm, p-phenylenediamine 69 ppm pH 10.9 O2 2.0 ppm, o-phenylenediamine 58 ppm pH 10.2 O2 2.0 ppm, resorcinol 90 ppm pH 9.8 O2 1.8 ppm, values below 20% may be artifacts; for oxygen scavenging in the test water (in words): conclusion from TABLE 1
Procedure: In a first series of tests, the oxygen scavenging efficacies of various materials were evaluated under conditions of elevated temperature and pressure. The test apparatus used was essentially a stainless steel hot water flow system equipped with appropriate monitoring instrumentation. Demineralized feedwater, adjusted to the appropriate pH and initial dissolved oxygen level (controlled by nitrogen sparging), was pumped from a reservoir at ambient temperature into a once-through heater. Temperature was monitored continuously by means of thermocouples at several locations along the length of the flow tubing. A solution containing the oxygen scavenger test material was loaded into a pump driven syringe and fed continuously to the heated flow stream through a port containing a stainless steel ribbon mixing baffle. The feedwater containing dissolved oxygen and the test material then traversed the flow tubing via a by-pass comprising an additional length of coiled tubing. Contact (or reaction) time of the test material and dissolved oxygen was governed by the choice of coil length. The tendency of the temperature to drop during residence in the coiled tubing was offset by the use of thermostatted heating tapes which maintained the temperature in this tubing at 78°±3°C. Upon exiting the coiled tubing, the stream flowed through a sample cooler to render the temperature of the liquid compatible with the operating range of a membrane-type dissolved oxygen probe. The cooled liquid was analyzed for dissolved oxygen via a D.O. flow cell, and pH was potentiometrically monitored in the flow tube immediately downstream of the D.O. probe. Outputs of the temperature, pH and dissolved oxygen probes during operation were monitored via strip chart recorders. The final destination of the reaction mixture was a reservoir which could be drained for analysis of reaction products, if desired.
Temperature in the system could be maintained at 78°±3° C. under 4±1 psig. Residence time of the feedwater in the flow tube from chemical feed point to D.O. flow cell outlet was 4±0.2 minutes. Approximately 3.5 minutes of this total was spent in a 40' length of 0.402 inch i.d. coiled tubing. Entry into and residence in the sample cooler accounted for 0.5 minute of the total contact time.
According to an article by J. W. Cohn and R. E. Powell, Jr., J. Amer.
The test solutions were prepared by initially mixing 10 grams of test material and 90 grams of demineralized water in glass bottles and allowing the mixture to remain in a shaker for several hours. If complete dissolution for a given material was observed after shaking, the pH of the solution was measured. When the pH of the solution was below 10.0, 7 N sodium hydroxide was added dropwise until this value was reached. The quantity of added sodium hydroxide was recorded and later used in corrections for the active concentration of the solution. When the pH value of a stock solution was above pH 10.0 without requiring the addition of caustic, the solution was not further modified.
Results of these tests are reported in TABLE 1 below in terms of percent oxygen removed from the test stream. The precision of the initial and final dissolved oxygen values reported is approximately ±10%. […] The experimental uncertainties decrease with increasing values of percent dissolved oxygen removal.

[3] = background; cited from earlier work
[4] = low temperatures such as room temperature; background; cited from earlier work
[5] = for % O2 Removed, 1 Minute: hydroquinone: pH 8.6, 22.5 °C, 0.94 mol/mol O2, initial O2 7.7 ppm
From the text: The test apparatus basically consisted of a 1 liter three-necked flask fitted with a dissolved oxygen probe and a pH electrode. The intent of this apparatus was to show reaction kinetics differences rather than precise measurements (within seconds) of reaction times.
The flask was filled with deionized water which had been stripped of some dissolved oxygen by bubbling nitrogen through a diffuser stone. The pH was adjusted to the desired level with sodium hydroxide. The flask was sealed with a rubber septum, the dissolved oxygen probe and an inlet stopper. A magnetic stirrer bar was left in the flask for mixing. The mixer was turned on, and dissolved oxygen and temperature readings were recorded until the dissolved oxygen reached a constant value. Next, the appropriate quantity of additive was injected through the septum using a hypodermic syringe. The initial mole ratio of treatment to dissolved oxygen was determined by weighing feed chemical and measuring the oxygen concentration. […] Dissolved oxygen and temperature readings were then taken at appropriate time intervals.

[6] = oxygen scavenging in feedwater of a working boiler (Example 2)
Procedure: In order to compare the performance of hydroquinone with that of hydrazine under field-type conditions, a series of experiments were conducted on the feedwater of a working boiler. The test materials were fed to the deaerator storage tank, and the resultant change, if any, in dissolved oxygen level was measured on a sample flowing from the feedwater line through a membrane-type dissolved oxygen probe.
During the tests, a relatively wide range of experimental conditions was encountered among the test parameters, reflecting the difficulty of attempting to obtain precise data during experiments performed on a working boiler.
In order to provide some point of reference for judging oxygen scavenging efficacies while taking into account the diverse conditions experienced on a daily basis, hydrazine control runs were performed, whenever possible, under feedwater and boiler conditions similar to those encountered during testing of other test materials. The hydrazine control runs are reported below in TABLE 3 also in terms of % oxygen removal.

[7] = Cohn and Powell, J. Amer. Chem. Soc., 76, 2568 (1954); cited from earlier work
[8] = thermal decomposition of aqueous solutions in autoclaves (Example 5); details: hydrazine 60 ppm, 435 psig, 450 °F, 4 hours
Procedure: The aqueous solutions (approximately 50-60 ppm in demineralized water) were subjected to specified temperature and pressure conditions for 4 hours prior to chemical analysis.

[9] = tested on: test rats; details: conclusion from TABLE 4; cited from earlier work
[10] = hydrazine: pH 9.2, 26.5 °C, 10.5 mol/mol O2, initial O2 0.87 ppm

For `O=S([O-])[O-].[Na+].[Na+]` [sodium sulfite], the “decomposition in the boiler (in words)” value ([1]; at high pressures) is given as “decomposes in the boiler to form sulfur dioxide and hydrogen sulfide”.
In the case of `NN` [hydrazine], the “% O2 Removed” value [2] is listed as 91 ± 4%, the “toxicity (in words)” value [3] is listed as “extreme toxicity and carcinogenicity” and the “rate of hydrazine-oxygen reaction (in words)” value [4] is listed as “very slow at low temperatures”. For the same compound, the “% O2 Removed, 1 Minute” value [5, 10] was 1%, the “% O2 Removed, 5 Minutes” value ([5]; 5 minutes, hydrazine: pH 9.2, 26.5 °C, 10.5 mol/mol O2, initial O2 0.87 ppm) was 2% and the “temperature above which it decomposes” value ([1]; to nitrogen, hydrogen and ammonia) was “Above 400 °F”. For the same compound, the “% O2 Removed” value ([6]; hydrazine control run 1: 1.6 ppm actives, pH 8.8, steam load 11 (1000 lbs./hr.), initial O2 13.0 ppb) was 69%, the “% O2 Removed” value ([6]; hydrazine control run 2: 1.1 ppm actives, pH 9.4, steam load 15 (1000 lbs./hr.), initial O2 4.0 ppb) was 50% and the “% O2 Removed” value ([6]; hydrazine control run 3: 1.2 ppm actives, pH 8.6, steam load 15 (1000 lbs./hr.), initial O2 6.0 ppb) was 60%. For the same compound, the “% O2 Removed” value ([6]; hydrazine control run 4: 1.0 ppm actives, pH 8.8, steam load 15 (1000 lbs./hr.), initial O2 5.8 ppb) was 55%, the “% O2 Removed” value ([6]; hydrazine control run 5: 0.8 ppm actives, pH 9.4, steam load 11 (1000 lbs./hr.), initial O2 3.5 ppb) was 31% and the “% O2 Removed” value ([6]; hydrazine control run 6: 1.6 ppm actives, pH 9.6, steam load 14 (1000 lbs./hr.), initial O2 4.0 ppb) was 30%. For the same compound, the “pH of maximum oxygen scavenging efficacy in solution” value [7] was 10.0-10.5 and the “% Decomposition” value [8] was 20%.
In the case of `Oc1ccc(O)cc1` [hydroquinone], the “% O2 Removed” value [2] is reported as 97%, the “oxygen scavenging in the test water (in words)” value (“oxygen scavenging … (in words)” for short) [2] is reported as “at least equivalent to, if not better than, hydrazine” and the “% O2 Removed, 1 Minute” value [5, 10] is reported as 29%. The “reactivity at low temperature with oxygen (in words)” value ([5]; conclusion from TABLE 5, compared to hydrazine) was “superiority of hydroquinone, as compared to hydrazine”, the “% O2 Removed” value ([6]; 1.9 ppm actives, pH 8.4, steam load 15 (1000 lbs./hr.), initial O2 8.0 ppb) was 88% and the “% O2 Removed” value ([6]; 1.9 ppm actives, pH 8.4, steam load 15 (1000 lbs./hr.), initial O2 10.0 ppb) was 90%. For the same compound, the “efficacy in treating boiler feedwater (in words)” value ([6]; conclusion from TABLES 2 and 3) was “compared favorably with hydrazine” and the “toxicity compared to hydrazine (in words)” value [9] was “significantly less toxic as compared to hydrazine”.
For `Nc1ccc(N)cc1` [p-phenylenediamine], the “% O2 Removed” value [2] was 35% and the “oxygen scavenging … (in words)” value [2] was “did not work as oxygen scavengers”.
In the case of `Nc1ccccc1N` [o-phenylenediamine], the “% O2 Removed” value [2] is reported as 10% and the “oxygen scavenging … (in words)” value [2] is reported as “did not work as oxygen scavengers”.
With `Oc1cccc(O)c1` [resorcinol] the “% O2 Removed” value [2] was 0% and the “oxygen scavenging … (in words)” value [2] was “did not work as oxygen scavengers”.
